Common to all, as to assay type: cell-based, Acinetobacter baumannii
Experiment [1] concerns COLR-Ab isolates. As to the kind of experiment: Broth microdilution MIC determination (CLSI). As to the method: The broth microdilution method, as recommended by the CLSI, was used to determine the MIC values of COL, p-CA, FA, and p-MCA [46]. The serial two-fold dilutions of antimicrobial agents were prepared using 96-well microplates with cation-adjusted Mueller-Hinton Broth (MHB) (CAMHB, Merck KGaA, Darmstadt, Germany). Firstly, an initial concentration of 8192 µg/mL was chosen to determine the MIC values of all compounds against COLR-Ab isolates. […] The bacterial suspension was adjusted to the 0.5 McFarland standard and added to each well (final bacterial concentration: 5 × 10^5 colony forming units [CFU]/mL). Additionally, the microdilution plates included controls for bacterial growth (CAMHB + bacteria) and medium sterility (CAMHB). Microdilution plates were incubated at 35 ± 2 °C for 18–24 h. The MIC values were calculated by comparing the growth densities in the antibiotic-containing wells to those in the control wells used in each test set. Each experiment was conducted in triplicate.

Experiment [2] deals with COLR-Ab isolates. As to the kind of experiment: Checkerboard synergy test with COL. As to the method:
The checkerboard synergy test, based on microdilution, was carried out to investigate the combined activity of antibiotic and cinnamic acid derivatives. The effectiveness of the two antimicrobial drugs in combination was evaluated using a 96-well microplate for each strain. The medium employed was CAMHB. […] COL was added vertically, and cinnamic acids was added horizontally to the wells. The bacterial suspension was prepared to 0.5 McFarland standard density, and the final bacterial concentration was adjusted to 5 × 10^5 CFU/mL. In total, 10 µL of bacterial inoculum was added to each well. Bacterial growth control (CAMHB + bacteria) and medium sterility control (CAMHB) were also examined for each plate. The plates were incubated at 35 ± 2 °C for 18–24 h. Each experiment was conducted in triplicate.
The fractional inhibition concentrations (FIC) of all antimicrobial agents were calculated for the evaluation of the results in accordance with the following formulae:FICA = (MIC of A in combination/MIC of A alone)FICB = (MIC of B in combination/MIC of B alone)FICindex(FICI) = FICA + FICB
FICI ≤ 0.5 was considered to indicate synergism, […] ≤ 4 was considered to indicate indifference, and FICI > 4 was considered to indicate antagonism. In the formulae, the letter “A” is used to represent COL, while “B” is used to represent one of the compounds, p-CA, FA, and p-MCA.

Another experiment has as its system COLR-Ab4 isolate. Kind of experiment: Cytoplasmic membrane permeability assay (A260 of supernatant). Particulars: 3 h. As to the method: A cell membrane permeability assay was carried out in accordance with the methods described by Köse (2023). […] The bacteria were firstly incubated in MHB at 35 ± 2 °C overnight. Subsequently, the bacterial culture was centrifuged at 4000× g at 15 min, after which the pellet was washed twice with PBS. […] A suspension containing PBS and bacteria was used as a control. All samples were incubated at 35 ± 2 °C for 3 h, centrifuged at 13,400× g for 15 min, and the supernatant was harvested. The absorbance (A)260 of the supernatant was quantified using a UV-Vis spectrophotometer (Agilent Technologies, Santa Clara, CA, USA) to determine the amount of nucleic acid released from the cytoplasm. Each experiment was repeated three times.

Experiment [3] has as its system biofilm formation of COLR-Ab isolates. As to the kind of experiment: Antibiofilm activity, microtiter plate-based crystal violet technique. Particulars: for Reduction of biofilm formation: dose range 512–32 μg/mL. The protocol:
Following the incubation period, the microtiter plates were gently washed three times with PBS. Subsequently, 200 µL of methanol (99%) was added to each well and left for 15 min. The methanol was then removed from the wells and the plate was left to dry for approximately 30 min, thus completing the fixation process. Then, 200 µL of 0.1% CV solution was added to each well and incubated for 20 min at room temperature. The plates were washed three times with PBS in order to remove the excess stain, and then 150 μL of 95% ethanol was added to the wells and incubated for 20 min. The optical density of the CV-stained biofilm was measured at a wavelength of 575 nm using a Thermo Labsystem Multiscan Spectrum microtiter plate reader (Thermolabsystem, Chantilly, VA, USA). Each experiment was conducted in triplicate.
In order to evaluate the antibiofilm activity of COL, p-CA, FA, and p-MCA, a 96-well microtiter plate-based CV test was carried out, with minor modifications to the methods previously described by Kırmusaoglu (2019) and Haney et al. (2021). Briefly, bacteria were inoculated into MHB medium containing 0.2% glucose and incubated at 37 °C for 16–20 h. The bacterial suspension, adjusted to 0.5 McFarland using the same medium, was prepared to a final concentration of 5 × 10^5 CFU/mL and inoculated into 96-well flat-bottom microtitre plates. […] Wells containing only medium were used as negative controls (MHB), and wells containing only medium and bacteria were used as growth controls. The plates were then incubated overnight at 35 ± 2 °C in a normal atmosphere. Following incubation, CV staining procedures were carried out in a similar manner to Section 4.4.
The antibiofilm index was calculated using the following formula:% Biofilm Mass = (100 × Sample OD575/Growth Control OD575)

≈ marks a conversion by molar mass, not a printed value. Where “and” joins values, the source holds several entries; their conditions need not be identical. Equal values may be shown once. Read-outs that look alike come from different tables or passages of the source.

As usually defined, the MIC is the smallest concentration in the dilution series that meets the test's criterion for growth inhibition. In the case of `O=C(O)/C=C/c1ccc(O)cc1` [p-CA, p-coumaric acid], the MIC is 256 µg/mL (≈ 1560 µM) in the experiment with COLR-Ab isolates [1] (Acinetobacter baumannii, COLR-Ab1, read-out: MIC); 256 µg/mL (≈ 1560 µM) with COLR-Ab isolates [1] (Acinetobacter baumannii, COLR-Ab2, read-out: MIC); 256 µg/mL (≈ 1560 µM) with COLR-Ab isolates [1] (Acinetobacter baumannii, COLR-Ab3, read-out: MIC); 256 µg/mL (≈ 1560 µM) in the experiment on COLR-Ab isolates [1] (Acinetobacter baumannii, COLR-Ab4, read-out: MIC); 128 µg/mL (≈ 780 µM) with COLR-Ab isolates [1] (Acinetobacter baumannii, COLR-Ab5, read-out: MIC); 256 µg/mL (≈ 1560 µM) with COLR-Ab isolates [1] (Acinetobacter baumannii, all isolates except COLR-Ab5, read-out: MIC). In the experiment with COLR-Ab isolates [1] (COLR-Ab5), this compound registered a minimal inhibitory concentration (MIC) of 128 µg/mL (≈ 780 µM). The “Interpretation of FICI for COL combined with the compound” value (“Interpretation of FICI for COL combined” below) in the experiment with COLR-Ab isolates [2] (COLR-Ab1), with COLR-Ab isolates [2] (COLR-Ab2), in the experiment on COLR-Ab isolates [2] (COLR-Ab3), with COLR-Ab isolates [2] (COLR-Ab4) and in the experiment with COLR-Ab isolates [2] (COLR-Ab5) was “S (synergistic effect)” each time. The “Mean FICI for COL combined with the compound” value (shortened to “Mean FICI for COL combined”) in the experiment on COLR-Ab isolates [2] (COLR-Ab1) amounted to 0.16; in the experiment with COLR-Ab isolates [2] (COLR-Ab2) it was 0.19; with COLR-Ab isolates [2] (COLR-Ab3), 0.16; in the experiment on COLR-Ab isolates [2] (COLR-Ab4), 0.15; in the experiment on COLR-Ab isolates [2] (COLR-Ab5), 0.28. The “Increase in absorbance values at 260 nm vs control” value (“Increase in absorbance values” below) with COLR-Ab4 isolate (COLR-Ab4, MIC concentration) is listed as 1.9 fold; with COLR-Ab4 isolate (COLR-Ab4, MIC/2 concentration) it was 1.71 fold; in the experiment on COLR-Ab4 isolate (COLR-Ab4, MIC/4 concentration), 1.19 fold. Further, the “Increase in biofilm formation” value in experiment [3] (COLR-Ab3, doses of 16–8 μg/mL) turned out to be 20%. Besides, the “Reduction of biofilm formation” value in experiment [3] (COLR-Ab1, 3, 4, 5) is given as 37.3–77.5%.

Turning to `COc1cc(/C=C/C(=O)O)ccc1O` [FA, ferulic acid], the MIC with COLR-Ab isolates [1] (COLR-Ab1) is 1024 µg/mL (≈ 5270 µM); in the experiment on COLR-Ab isolates [1] (COLR-Ab2) it was 1024 µg/mL (≈ 5270 µM); in the experiment on COLR-Ab isolates [1] (COLR-Ab3), 1024 µg/mL (≈ 5270 µM); in the experiment with COLR-Ab isolates [1] (COLR-Ab4) it was 512 µg/mL (≈ 2640 µM); in the experiment with COLR-Ab isolates [1] (COLR-Ab5), 1024 µg/mL (≈ 5270 µM); against COLR-Ab isolates [1] (all isolates except COLR-Ab4) it was 1024 µg/mL (≈ 5270 µM). Further, the “Interpretation of FICI for COL combined” value in the experiment with COLR-Ab isolates [2] (COLR-Ab1) was “S (synergistic effect)”; in the experiment on COLR-Ab isolates [2] (COLR-Ab2), “S (synergistic effect)”; with COLR-Ab isolates [2] (COLR-Ab3), “S (synergistic effect)”; in the experiment with COLR-Ab isolates [2] (COLR-Ab4), “I (indifferent effect)”; in the experiment with COLR-Ab isolates [2] (COLR-Ab5), “S (synergistic effect)”. Besides, the “Mean FICI for COL combined” value with COLR-Ab isolates [2] (COLR-Ab1) turned out to be 0.15; with COLR-Ab isolates [2] (COLR-Ab2), 0.15; in the experiment on COLR-Ab isolates [2] (COLR-Ab3) it was 0.15; in the experiment on COLR-Ab isolates [2] (COLR-Ab4), 0.51; in the experiment on COLR-Ab isolates [2] (COLR-Ab5), 0.12. The “Increase in absorbance values” value was 1.66 fold in the experiment with COLR-Ab4 isolate (COLR-Ab4, MIC concentration); 1.52 fold in the experiment on COLR-Ab4 isolate (COLR-Ab4, MIC/2 concentration); 1.14 fold with COLR-Ab4 isolate (COLR-Ab4, MIC/4 concentration). For the same compound, the “Inhibition of biofilm formation” value in experiment [3] (dose range 2048–128 μg/mL, COLR-Ab1, 3, 4, 5) was 28.1–77%.

For the compound `COc1ccc(C=CC(=O)O)cc1` [p-MCA, p-methoxycinnamic acid], the MIC was 512 µg/mL (≈ 2870 µM) in the experiment with COLR-Ab isolates [1] (COLR-Ab1); 512 µg/mL (≈ 2870 µM) against COLR-Ab isolates [1] (COLR-Ab2); 256 µg/mL and 128 µg/mL with COLR-Ab isolates [1] (COLR-Ab3); 256 µg/mL (≈ 1440 µM) with COLR-Ab isolates [1] (COLR-Ab4); 128 µg/mL (≈ 718 µM) against COLR-Ab isolates [1] (COLR-Ab5). The “Interpretation of FICI for COL combined” value with COLR-Ab isolates [2] (COLR-Ab1), in the experiment with COLR-Ab isolates [2] (COLR-Ab2), with COLR-Ab isolates [2] (COLR-Ab3), with COLR-Ab isolates [2] (COLR-Ab4) and in the experiment with COLR-Ab isolates [2] (COLR-Ab5) was “S (synergistic effect)” each time. Further, the “Mean FICI for COL combined” value in the experiment with COLR-Ab isolates [2] (COLR-Ab1) was found to be 0.09; with COLR-Ab isolates [2] (COLR-Ab2), 0.09; in the experiment with COLR-Ab isolates [2] (COLR-Ab3), 0.27; in the experiment with COLR-Ab isolates [2] (COLR-Ab4), 0.14; in the experiment with COLR-Ab isolates [2] (COLR-Ab5), 0.27. Further, the “Increase in absorbance values” value is 1.34 fold in the experiment with COLR-Ab4 isolate (COLR-Ab4, MIC concentration); 1.15 fold with COLR-Ab4 isolate (COLR-Ab4, MIC/2 concentration); “no statistically significant differences” with COLR-Ab4 isolate (COLR-Ab4, MIC/4 concentration). Further, the “Reduction of biofilm formation” value in experiment [3] (COLR-Ab1, 3, 4, 5) is 40.3–77.2%.

(Values after article PMC11761228, “Cinnamic Acid Compounds (p-Coumaric, Ferulic, and p-Methoxycinnamic Acid) as Effective Antibacterial Agents Against Colistin-Resistant Acinetobacter baumannii” (Antibiotics, 2025).)
